The values below come from patent US20250304547A1, “Sulfur-Containing Lipids” (NanoVation Therapeutics Inc., priority 2022, published 2025).

A short description of data set [1]: Particle size analysis of LNPs by dynamic light scattering. The conditions noted are these: firefly luciferase mRNA LNP, ionizable lipid/DSPC/chol/PEG-DMG 50/10/38.5/1.5 mol %; for polydispersity index (PDI): N/P 6; for particle size (number-weighted average diameter): N/P 6, in PBS. The format is physicochemical. As for the experimental part:
(§1) Lipids used in the formulation, nor-MC3, 4, DSPC, cholesterol, and PEG-DMG, were dissolved in ethanol at the appropriate ratios to a final concentration of 10 mM total lipid. Nucleic acid (mRNA) was dissolved in an appropriate buffer such as 25 mM sodium acetate pH 4 or sodium citrate pH 4 to a concentration necessary to achieve the appropriate amine-to-phosphate ratios. The aqueous and organic solutions were mixed using a rapid-mixing device as described in Kulkami et al., 2018, ACS Nano, 12:4787 and Kulkami et al., 2017, Nanoscale, 36:133347 (each incorporated herein by reference) at a flow rate ratio of 3:1 (v/v; respectively) and a total flow rate of 20 mL/min. The resultant mixture was dialyzed directly against 1000-fold volume of PBS pH 7.4. All formulations were concentrated using an Amicon™ centrifugal filter unit and analysed using the methods described below.
Particle size analysis of LNPs in PBS was carried out using backscatter measurements of dynamic light scattering with a Malvern Zetasizer™ (Worcestershire, UK). The reported particle sizes correspond to the number-weighted average diameters (nm). Total lipid concentrations were determined by extrapolation from the cholesterol content, which was measured using the Cholesterol E-Total Cholesterol Assay (Wako Diagnostics, Richmond, VA) as per the manufacturer's recommendations. Encapsulation efficiency of the formulations was determined using the Quant-iT RiboGreen™ Assay kit (Invitrogen, Waltham, MA). Briefly, the total mRNA content in solution was measured by lysing lipid nanoparticles in a solution of Tris-EDTA (TE) containing 2% Triton Tx-100, and free […] in solution (external to LNP) was measured based on the RiboGreen™ fluorescence in a TE solution without Triton. Total mRNA content in the formulation was determined using a modified Bligh-Dyer extraction procedure. Briefly, LNP formulations containing mRNA were dissolved in a mixture of chloroform, methanol, and PBS that results in a single phase and the absorbance at 260 nm measured using a spectrophotometer.

The nature of data set [2]: Encapsulation efficiency, Quant-iT RiboGreen assay. The format is physicochemical. Particulars: firefly luciferase mRNA LNP, ionizable lipid/DSPC/chol/PEG-DMG 50/10/38.5/1.5 mol %, N/P 6. As for the experimental part: as §1
Particle size analysis of LNPs in PBS was carried out using backscatter measurements of dynamic light scattering with a Malvern Zetasizer™ (Worcestershire, UK). […] Total lipid concentrations were determined by extrapolation from the cholesterol content, which was measured using the Cholesterol E-Total Cholesterol Assay (Wako Diagnostics, Richmond, VA) as per the manufacturer's recommendations. Encapsulation efficiency of the formulations was determined using the Quant-iT RiboGreen™ Assay kit (Invitrogen, Waltham, MA). […]

A further data set has as its system liver. Nature of the data set: In vivo transfection of firefly luciferase mRNA-LNP, luciferase assay of liver. The conditions noted are these: CD-1 mice, intravenous, 4 hours post-administration, mRNA LNP 50/10/38.5/1.5 mol %, N/P 6. The method, then: as §1
(§2) LNP-mRNA encoding firefly luciferase were injected intravenously (tail-vein) into 6-8 week old CD-1 mice. Four hours following injection, the animals were euthanized and the liver and spleen were isolated. Tissue was homogenized in Glo Lysis™ buffer and a luciferase assay performed using the Steady Glo Luciferase™ assay kit (as per manufacturers recommendations).

In a further data set the test system is spleen. Nature of the data set: In vivo transfection of firefly luciferase mRNA-LNP, luciferase assay of spleen. The conditions noted are these: CD-1 mice, intravenous, 4 hours post-administration, mRNA LNP 50/10/38.5/1.5 mol %, N/P 6. The method, then:
as §1, §2

A further data set deals with FVII gene. Particulars: mice, siRNA formulations of the amino lipid; cited from earlier work.

With nor-MC3 [reference compound], in data set [1], the “polydispersity index (PDI)” value is listed as “about 0.075” and the “particle size (number-weighted average diameter)” value was “about 39.9 nm”. Also, the “entrapment / encapsulation efficiency” value in data set [2] was determined as 94%.

Take `CCCCCSCSCCCCCCCCC1(CCCCCCCCSCSCCCCC)OCC(CCN(C)C)O1` (stereo not drawn) [Lipid 4, 2-(2,2-bis(8-(((pentylthio)methyl)thio)octyl)-1,3-dioxolan-4-yl)-N,N-dimethyl-ethan-1-amine]: in data set [1], the “polydispersity index (PDI)” value is “about 0.090” and the “particle size (number-weighted average diameter)” value was “about 50.0 nm”. Moreover, the “entrapment / encapsulation efficiency” value in data set [2] was around 90%. In the data set with liver, the “luminescence intensity/mg of liver, relative to the nor-MC3 formulation” value is “trend was reversed in the liver”. Further, the “luminescence intensity/mg of spleen, relative to the nor-MC3 formulation” value in the data set on spleen is “higher luminescence intensity in the spleen”.

With `CCCCC/C=C\C/C=C\CCCCCCCCC1(CCCCCCCC/C=C\C/C=C\CCCCC)OCC(CCN(C)C)O1` (stereo not drawn) [KC2], in the data set with FVII gene, the ED50 for FVII gene silencing is 0.1 mg/kg.
